Laboratory results from paper PMC4393105, “tRNA^Glu Increases the Affinity of Glutamyl-tRNA Synthetase for Its Inhibitor Glutamyl-Sulfamoyl-Adenosine, an Analogue of the Aminoacylation Reaction Intermediate Glutamyl-AMP: Mechanistic and Evolutionary Implications” (PLoS ONE, 2015).
Where “and” joins values, the source holds several entries; their conditions need not be identical. Equal entries are not always repeated.

What was measured:
[1] = tested on: Escherichia coli glutamyl-tRNA synthetase (GluRS); design: method as in PMID 15895686; conditions: competitive inhibitor; cited from earlier work
[2] = molecular target: T1, E. coli GluRS + S. cerevisiae tRNA^Phe (Escherichia coli, UniProt P04805); assay: Isothermal titration microcalorimetry of Glu-AMS binding to GluRS in the presence of non-cognate tRNA^Phe; conditions: for Kd: Kd (dissociation constant), Kd = 1/Kb
T1 construct: His tag (histidine tag) (C); made in house
T1 sequence (P04805 whole entry): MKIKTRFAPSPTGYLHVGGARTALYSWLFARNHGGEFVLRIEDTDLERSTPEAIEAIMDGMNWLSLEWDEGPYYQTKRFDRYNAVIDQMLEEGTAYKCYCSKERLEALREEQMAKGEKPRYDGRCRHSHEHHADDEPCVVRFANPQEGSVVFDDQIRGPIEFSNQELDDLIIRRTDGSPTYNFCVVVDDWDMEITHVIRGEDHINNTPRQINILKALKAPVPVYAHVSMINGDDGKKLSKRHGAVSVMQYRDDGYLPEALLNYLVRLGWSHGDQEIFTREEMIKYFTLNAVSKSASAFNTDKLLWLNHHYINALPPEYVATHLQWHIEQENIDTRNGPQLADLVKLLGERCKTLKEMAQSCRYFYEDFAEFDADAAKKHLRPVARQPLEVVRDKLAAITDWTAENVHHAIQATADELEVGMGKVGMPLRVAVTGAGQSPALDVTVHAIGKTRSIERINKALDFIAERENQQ
Protocol: (§1) Overproduction and purification of E. coli GluRS were performed as previously described with the following modifications. A C-terminal histidine-tagged GluRS was used instead of the N-terminal tagged one. The overproduction was induced overnight at 30°C with 1 mM IPTG.
Overproduction and purification of E. coli tRNA^Glu-enriched total tRNA was done as described. […] Saccharomyces cerevisiae tRNA^Phe, used as a negative control, was purchased from Sigma-Aldrich (cat No: R4018).
(§2) The GluRS solution with or without tRNA was dialyzed overnight in a D-tube dialyzer (Novagen) against 2 L of dialysis buffer (50 mM HEPES-KOH, pH 7.2, 10 mM MgCl2) at 4°C with light stirring. The next morning, the dialyzed solution was recovered and the volume adjusted by adding dialysis buffer to obtain the desired concentration (typically 9 μM GluRS and 11 μM tRNA^Glu). This solution was kept on ice until use. Glu-AMS was diluted in the dialysis buffer to obtain a final concentration of 90 μM. All buffers and solutions were degased with stirring under vacuum. The microcalorimetry experiments were carried out in a VP-ITC 100 microcalorimeter (MicroCal, GE Healthcare) using deionized water as an internal reference for all assays. VPViewer ITC 2000 and Origin v 5.0 softwares (Microcal Software, Inc) were used for data collection and analysis, respectively.
(§3) To measure the thermodynamic parameters of the interaction between Glu-AMS and GluRS, in the presence and in the absence of tRNA, a solution containing 9 μM GluRS with or without a stoichiometric excess of tRNA^Glu or S. cerevisiae tRNA^Phe (Table 1) was placed in the sample cell of the microcalorimeter. The following conditions were used for all tests: reference power was set at 12 μcal/s and stirring at 300 rpm, the “high” feedback mode and “No check Temp”, “Fast Equil” and “Auto” ITC equilibration options were selected. The 90 μM Glu-AMS solution was loaded in the injection syringe. After a first injection of 1 μL over 2 s, a series of 39 injections (7.4 μL over 14.8 s) with 240 s between injections was performed. Injections of Glu-AMS in GluRS alone, GluRS•tRNA^Glu or GluRS•tRNA^Phe, were performed at 30°C (303 K), and done in duplicate. Injections of Glu-AMS in GluRS were also performed at 20°C and 37°C (293 and 310 K): 14 injections (20 μL over 40 s) followed the first injection of 1 μL. Each temperature was tested in duplicate, and in triplicate at 37°C.
(§4) The following nomenclature was used to describe the interaction at equilibrium between Glu-AMS and either GluRS or a GluRS•tRNA complex: GluRS•Glu-AMS↔GluRS+[…] Kd=[GluRS]×[Glu-AMS]/[GluRS•Glu-AMS] 1/Kd=Kb (binding constant, sometimes referred to as Ka).

murine hepatic GluRS = tested on: murine hepatic GluRS; design: method as in PMID 15895686; conditions: cited from earlier work
E. coli GluRS = molecular target: T2, E. coli GluRS (Escherichia coli, UniProt P04805); assay: Isothermal titration microcalorimetry of Glu-AMS binding to GluRS in the absence of tRNA; conditions: no tRNA; for Kd: Kd (dissociation constant), Kd = 1/Kb
T2 construct: His tag (histidine tag) (C); made in house
T2 sequence (P04805 whole entry): as above
Protocol: as §1, §2, §3, §4

[3] = single ITC run, tRNA^Phe 11.23 µM, 303 K, [ligand] 90 µM, [GluRS] 2.198 µM
[4] = single ITC run, tRNA^Phe 11.23 µM, 303 K, [ligand] 90 µM, [GluRS] 2.434 µM
[5] = with S. cerevisiae tRNA^Phe, 30°C, weighted mean of ITC runs
[6] = single ITC run, 293 K, [ligand] 90 µM, [GluRS] 4.15 µM
[7] = single ITC run, 293 K, [ligand] 90 µM, [GluRS] 4.35 µM
[8] = single ITC run, 303 K, [ligand] 90 µM, [GluRS] 4.143 µM
[9] = single ITC run, 303 K, [ligand] 90 µM, [GluRS] 5.355 µM
[10] = single ITC run, 310 K, [ligand] 90 µM, [GluRS] 3.169 µM
[11] = single ITC run, 310 K, [ligand] 90 µM, [GluRS] 3.931 µM
[12] = single ITC run, 310 K, [ligand] 90 µM, [GluRS] 4.015 µM
[13] = 30°C (303 K), weighted mean of ITC runs

## Nc1ncnc2c1ncn2[C@@H]1O[C@H](COS(=O)(=O)NC(=O)[C@@H](N)CCC(=O)O)[C@@H](O)[C@H]1O [Glu-AMS, 5’-O-[N-(L-glutamyl)sulfamoyl]adenosine]
[1]
  Ki: 2.8 nM
[2]; [3]
  Kd: 478 ± 86 nM
  -TΔSb: -3875 ± 242
  n (stoichiometry coefficient): 0.9925 ± 0.048
  ΔGb (reaction energy): -8.762 kcal/mol
  ΔHb (reaction enthalpy): -4.882 ± 0.305 kcal/mol
  ΔSb (reaction entropy): 12.79 ± 0.80 cal/mol·K
[2]; [4]
  Kd: 987 ± 190 nM
  -TΔSb: -1658 ± 172
  n (stoichiometry coefficient): 0.9835 ± 0.0809
  ΔGb (reaction energy): -8.326 kcal/mol
  ΔHb (reaction enthalpy): -6.657 ± 0.689 kcal/mol
  ΔSb (reaction entropy): 5.472 ± 0.57 cal/mol·K
[2]; versus absence of tRNA
  affinity of GluRS for Glu-AMS in the presence of the non-cognate tRNA^Phe: not altered
[2]; with S. cerevisiae tRNA^Phe, 30°C, simple average, ΔGb = -RT Ln Kb
  ΔGb (reaction energy): -8.544 ± 0.309 kcal/mol
[2]; [5]
  -TΔSb: -2.398 ± 0.14 kcal/mol
  n (stoichiometry coefficient): 0.9902 ± 0.0410
  ΔHb (reaction enthalpy): -5.173 ± 0.279 kcal/mol
  ΔSb (reaction entropy): 7.92 ± 0.46 cal/mol·K
Murine hepatic GluRS
  times less efficient against murine hepatic GluRS than against E. coli GluRS: 25 times
E. coli GluRS; [6]
  Kd: 545 ± 162 nM
  -TΔSb: -4495 ± 320
  n (stoichiometry coefficient): 1.014 ± 0.054
  ΔGb (reaction energy): -8.397 kcal/mol
  ΔHb (reaction enthalpy): -3.909 ± 0.279 kcal/mol
  ΔSb (reaction entropy): 15.34 ± 1.09 cal/mol·K
E. coli GluRS; [7]
  Kd: 547 ± 150 nM
  -TΔSb: -4465 ± 297
  n (stoichiometry coefficient): 1.006 ± 0.050
  ΔGb (reaction energy): -8.395 kcal/mol
  ΔHb (reaction enthalpy): -3.946 ± 0.263 kcal/mol
  ΔSb (reaction entropy): 15.24 ± 1.01 cal/mol·K
E. coli GluRS; [8]
  Kd: 281 ± 39 nM
  -TΔSb: -3936 ± 97
  n (stoichiometry coefficient): 0.9963 ± 0.0184
  ΔGb (reaction energy): -9.083 kcal/mol
  ΔHb (reaction enthalpy): -5.142 ± 0.127 kcal/mol
  ΔSb (reaction entropy): 12.99 ± 0.32 cal/mol·K
E. coli GluRS; [9]
  Kd: 307 ± 28 nM
  -TΔSb: -4018 ± 58
  n (stoichiometry coefficient): 1.001 ± 0.011
  ΔGb (reaction energy): -9.029 kcal/mol
  ΔHb (reaction enthalpy): -5.007 ± 0.073 kcal/mol
  ΔSb (reaction entropy): 13.26 ± 0.19 cal/mol·K
E. coli GluRS; [10]
  Kd: 256 ± 20 nM
  -TΔSb: -2680 ± 41
  n (stoichiometry coefficient): 0.9997 ± 0.0114
  ΔGb (reaction energy): -9.349 kcal/mol
  ΔHb (reaction enthalpy): -6.654 ± 0.102 kcal/mol
  ΔSb (reaction entropy): 8.646 ± 0.132 cal/mol·K
E. coli GluRS; [11]
  Kd: 318 ± 82 nM
  -TΔSb: -2978 ± 147
  n (stoichiometry coefficient): 1.005 ± 0.037
  ΔGb (reaction energy): -9.217 kcal/mol
  ΔHb (reaction enthalpy): -6.225 ± 0.307 kcal/mol
  ΔSb (reaction entropy): 9.607 ± 0.473 cal/mol·K
E. coli GluRS; [12]
  Kd: 231 ± 37 nM
  -TΔSb: -3531 ± 90
  n (stoichiometry coefficient): 1.006 ± 0.019
  ΔGb (reaction energy): -9.413 kcal/mol
  ΔHb (reaction enthalpy): -5.873 ± 0.15 kcal/mol
  ΔSb (reaction entropy): 11.39 ± 0.29 cal/mol·K
E. coli GluRS; [13]
  -TΔSb: -3.996 ± 0.05 kcal/mol
  n (stoichiometry coefficient): 0.9998 ± 0.0094
  ΔHb (reaction enthalpy): -5.041 ± 0.063 kcal/mol
  ΔSb (reaction entropy): 13.2 cal/mol·K and 13.19 ± 0.16 cal/mol·K
E. coli GluRS; 293 K, mean of ITC runs
  -TΔSb: -4.479 ± 0.218 kcal/mol
  n (stoichiometry coefficient): 1.0097 ± 0.0369
  ΔHb (reaction enthalpy): -3.929 ± 0.191 kcal/mol
  ΔSb (reaction entropy): 15.29 ± 0.74 cal/mol·K
E. coli GluRS; 293 K, mean of ITC runs, ΔGb = -RT Ln Kb
  ΔGb (reaction energy): -8.396 ± 0.0016 kcal/mol
E. coli GluRS; 310 K, mean of ITC runs
  -TΔSb: -2.835 ± 0.036 kcal/mol
  n (stoichiometry coefficient): 1.0016 ± 0.0095
  ΔHb (reaction enthalpy): -6.395 ± 0.081 kcal/mol
  ΔSb (reaction entropy): 9.146 ± 0.117 cal/mol·K
E. coli GluRS; 310 K, mean of ITC runs, ΔGb = -RT Ln Kb
  ΔGb (reaction energy): -9.326 ± 0.1 kcal/mol
E. coli GluRS; from ΔHb at 293, 303 and 310 K
  change in heat capacity (ΔCp): -143 ± 23 cal/mol·K
